PubChem BioAssay AID489027 (Sanford-Burnham Center for Chemical Genomics, 2010)
Active and inactive are the calls of the source. The rule behind the calls is not given here.

Target: UPR counterscreen luciferase reporter, luminescence
Experiment: activators in UPR counterscreen luciferase reporter, dose response, counter-screen for adaptive UPR activator project, cell-based, luminescence (AID 489027)

Row | Structure (SMILES) | EC50
1 | COC(=O)c1c(NC(=O)CC2Nc3ccccc3NC2=O)sc(C)c1C (stereo not given) | inactive
2 | Cc1cc(-n2c(SCC(=O)Nc3ccc(F)c(F)c3)nc3n[nH]c(C)c3c2=N)ccc1Cl | > 80 µM (inactive)
3 | Cc1ccc(Nc2nc(NCCO)c3ccccc3n2)cc1C | > 80 µM (inactive)
4 | Cn1nc(C(F)(F)F)c(/C=N/OC(=O)c2ccccc2)c1SCc1ccc(Cl)cc1 | inactive
5 | Cn1nc(C(F)(F)F)c(/C=N/OC(=O)c2ccccc2)c1SCc1ccccc1Cl | inactive
6 | N#C/C(=C\Nc1ccc2cn[nH]c2c1)c1nc(-c2ccc(Cl)cc2)cs1 | inactive
7 | CCN(CC)c1ccc(N=Cc2c(O)n(Cc3ccccc3)c(=O)[nH]c2=O)cc1 | inactive
8 | CCc1cccc(CC)c1NC(=O)/C(C#N)=C/c1ccccc1C(F)(F)F | > 80 µM (inactive)
9 | COc1ccc(-c2cc(=O)oc3c(C)c(OC(=O)c4cccs4)ccc23)cc1 | > 80 µM (inactive)
10 | CC(C)c1ccc(/C=C/C(=O)Nc2nc3ccc([N+](=O)[O-])cc3s2)cc1 | inactive
11 | OC(CNCC1CCCO1)Cn1c2ccc(Cl)cc2c2cc(Cl)ccc21 (stereo not given) | > 80 µM (inactive)
12 | COc1ccccc1N=Cc1c(O)c2ccccc2oc1=O | 9.23 µM
13 | CN(c1ccccc1)S(=O)(=O)c1cccc(C(=O)NCCc2ccc(O)c(O)c2)c1 | 6.18 µM
14 | Cc1ccc(NC(=O)CSc2nc3ccccc3c3nc4ccccc4n23)cc1 | 6.26 µM
15 | O=c1[nH]c(O)c(/C=C2/C=CC(c3cc(Cl)ccc3Cl)=N2)c(=O)[nH]1 | 6.12 µM
16 | CCOc1cc(/C=N\Nc2ccc([N+](=O)[O-])cc2)ccc1OCC(=O)Nc1ccc(C)c(C)c1 | > 80 µM (inactive)
17 | Cc1ccc(N=Cc2c(O)n(-c3ccc4c(c3)OCO4)c(=O)c3ccccc23)cc1 | > 80 µM (inactive)
18 | Cc1ccc(Cn2c(=O)n(-c3ccccc3)c(=O)c3ccc(C(=O)NCc4ccco4)cc32)cc1 | > 80 µM (inactive)
19 | COc1ccc(/C=N/Nc2nnc(-c3ccccc3)c(=O)[nH]2)cc1 | 15.6 µM
20 | Cc1ccc(C(=O)Cn2c(C(=O)/C=C/c3ccccc3)nc3ccccc32)cc1 | 10.9 µM
21 | Cc1nc(NC(=O)CSc2ccc(-c3nc4ccccc4[nH]3)cn2)sc1C | inactive
22 | COc1ccc(/C=N/Nc2cc(C)nc3ccc(Br)cc23)cc1 | 9.88 µM
23 | Brc1cc(Br)c2ncnc(N3CCCCC3)c2c1 | inactive
24 | CCc1cc2c(=O)c(-c3cnn(-c4ccccc4)c3)c(C)oc2cc1OCC(=O)Nc1cccc(C)c1 | 11.5 µM

Row | Structure (SMILES) | EC50
25 | COc1cc([C@@H]2c3cc4c(cc3[C@@H](O)[C@H]3COC(=O)[C@H]23)OCO4)cc(OC)c1O[Si](C)(C)C(C)(C)C | 14.6 µM
26 | Cc1ccc(-c2[nH]ncc2/C=N/n2c(COc3ccccc3)nc3ccccc3c2=O)cc1 | inactive
27 | Cc1cccc2c1Sc1ccc(Cl)cc1CC2N1CCNCC1 (stereo not given) | > 80 µM (inactive)
28 | Nc1nc(Nc2cccc(C(F)(F)F)c2)nc(C(F)(F)F)n1 | inactive
29 | Nc1cccc(-c2nc3cc(S(=O)(=O)c4ccc5oc(-c6cccc(N)c6)nc5c4)ccc3o2)c1 | > 80 µM (inactive)
30 | O=Cc1cc2ccccc2nc1SCc1ccc(Cl)cc1 | inactive
31 | CCOc1cc(/C=C2/NC(=S)NC2=O)ccc1OCc1ccc([N+](=O)[O-])cc1 | inactive
32 | CCOC(=O)Cc1csc(/N=C/c2c(O)n(-c3ccc(C)c(C)c3)c(=O)c3ccccc23)n1 | 7.15 µM
33 | COc1ccccc1CCNC(=O)C1CCN(c2nnc(C)c3c(C)n(-c4ccc(C)cc4)nc23)CC1 | 18.1 µM
34 | Cc1nn(Cc2c(Cl)cccc2Cl)c(C)c1NC(=O)c1cn(-c2ccccc2)nc1-c1ccccc1 | 3.67 µM
35 | Cn1cc(/C=C(\C#N)C(=O)Nc2cccc([N+](=O)[O-])c2)c2ccccc21 | > 80 µM (inactive)
36 | COc1cc(-c2ccc3oc(-c4ccsc4)cc3c2)cc(OC)c1OC | > 80 µM (inactive)
37 | Cn1nnnc1Sc1ncnc2scc(-c3ccc(Cl)cc3)c12 | 17.1 µM
38 | Cc1ccc(NS(=O)(=O)c2cc([N+](=O)[O-])ccc2N/N=C/c2sc(N3CCOCC3)nc2-c2ccccc2)c(C)c1 | > 80 µM (inactive)
39 | Cc1cccc(NC(=O)CSc2nc(C)c(CC(=O)c3ccc(Br)cc3)c(C)c2C#N)c1C | > 80 µM (inactive)
40 | CCc1ccc(OCCNc2cc(N3CCNC(C)C3)ccc2[N+](=O)[O-])cc1 (stereo not given) | > 80 µM (inactive)
41 | OCCCn1c(C2CCCN2c2nc(-c3ccc(F)cc3)cs2)nc2cc(Cl)c(N3CCCCC3)cc21 (stereo not given) | > 80 µM (inactive)
42 | CCOC(=O)c1nnc(-c2ccccc2)nc1Sc1c(Cl)cccc1Cl | 12.9 µM
43 | Cc1ccc(-c2nc(N/N=C/c3cccc([N+](=O)[O-])c3)c3ccccc3n2)cc1 | > 80 µM (inactive)
44 | COc1ccc(-c2nn(C)c(=O)c3ccccc23)cc1NC(=O)Cn1nc(C)c2ccccc2c1=O | > 80 µM (inactive)
45 | COc1cc(/C=C(\C#N)c2nc3ccccc3[nH]2)cc(Br)c1OCc1ccc(F)cc1 | 15.3 µM
46 | CCOC(=O)c1sc(NC(=S)NC(=O)c2ccccc2)c(C(=O)OCC)c1C | inactive
47 | COc1ccc(C(CCNCc2ccc(F)cc2)c2ccc(F)cc2)cc1 (stereo not given) | 13.6 µM
48 | COc1ccc2c(c1)[nH]c1c(=O)n(/N=C/C3C(C)C=C(C)CC3C)c(=O)[nH]c12 (stereo not given) | inactive

Row | Structure (SMILES) | EC50
49 | CCCCCCCCCCOC(=O)Cn1c(COc2ccc(OC)cc2)[n+](C)c2ccccc21 | 18.8 µM
50 | FC(F)(F)c1nnc2c(Sc3ccccc3)nc3ccc(Cl)cc3n12 | 4.29 µM
51 | CC(C)N(C(=O)[C@H]1C[C@H](CC(=O)NCC23CC4CC(CC(C4)C2)C3)C(=O)N2CCc3c([nH]c4ccc(Cl)cc34)[C@]12C)C(C)C | inactive
52 | Cc1ccc(Nc2nc3ccc(Cl)cc3n3cnnc23)cc1F | inactive
53 | COc1ccccc1NC(=O)c1cc2c(CO)cnc(C)c2oc1=Nc1ccccc1 | 13.3 µM
54 | O=C(/C(=N/N=C/c1ccc(O)c(O)c1)c1ccccc1)c1ccccc1 | 8.07 µM
55 | COc1ccc(NC(=O)c2cc3c(=O)n(C)c4ccccc4c3n2C)cc1Cl | > 80 µM (inactive)
56 | CCOC(=O)c1c(NC(=O)Cc2cccs2)sc(C(=O)NC2CCCCC2)c1C | > 80 µM (inactive)
57 | Brc1ccc(C2=Nn3c(nnc3-c3n[nH]c4c3CCC4)SC2)cc1 | inactive
58 | O=C(NC1CCCCC1)c1cccc2c1C(=O)c1ccc(-c3ccc(OC(F)(F)F)cc3)cc1S2(=O)=O | > 80 µM (inactive)
59 | N#Cc1ccccc1/C=N/Nc1nc(-c2ccccc2)c2cc(Cl)ccc2n1 | 15.7 µM
60 | C=CCN(CC=C)S(=O)(=O)c1ccc(C(=O)Nc2nc3c(s2)CCc2ccccc2-3)cc1 | > 80 µM (inactive)
61 | CC(C)C(=O)N(c1cc2sc(=O)oc2c2ccccc12)S(=O)(=O)c1cccs1 | 16.3 µM
62 | O=C(Cn1c2ccccc2c(=O)c2cc([N+](=O)[O-])ccc21)Nc1ccccc1Cl | inactive
63 | CCc1ccc(N2C(=O)NC(=O)/C(=C\c3cccn3CCOc3ccc(C(C)C)cc3)C2=O)cc1 | 6.38 µM
64 | Nc1c(C(=O)Nc2ccc(S(=O)(=O)N3CCCC3)cc2)sc2nc3ccc(OC(F)(F)F)cc3cc12 | 4.39 µM
65 | CCOC(=O)c1ccc(-c2ccc(/C=N/NC(=O)CN(c3cccc(C)c3)S(C)(=O)=O)o2)cc1 | 15.5 µM
66 | COc1cc(C(=O)Nc2nc(-c3ccc(Cl)cc3)c(C)s2)ccc1OCC(=O)Nc1ccc(F)cc1 | 17.9 µM
67 | COc1ccc(-c2csc3nc(-c4ccc(C)cc4)oc(=O)c23)cc1OC | > 80 µM (inactive)
68 | CCCn1c(SCc2nc3sc(C)c(C)c3c(=O)[nH]2)nc2ccccc2c1=O | > 80 µM (inactive)
69 | NS(=O)(=O)c1ccc(N/N=C/c2cn(-c3ccccc3)nc2-c2cccs2)c([N+](=O)[O-])c1 | > 80 µM (inactive)
70 | Cc1nc2cc(NC(=O)CSc3nc4c(C)cccc4cc3C#N)ccc2s1 | > 80 µM (inactive)
71 | CC1CCC(C(C)C)C(OC(=O)Cn2c(-c3ccc(Br)cc3)[n+](C)c3ccccc32)C1 (stereo not given) | 10.9 µM
72 | COc1c(Cl)cc(Cl)cc1/C=N/NC(=O)c1nnn(-c2nonc2N)c1CN1CCC(C)CC1 | inactive

Row | Structure (SMILES) | EC50
73 | CC(C)=CCCC1(C)C=Cc2c(ccc3c2[nH]c2cc(O)c(C)cc23)O1 (stereo not given) | 19.6 µM
74 | NCCOc1ccc(C23CC4CC(CC(C4)C2)C3)cc1 | 8.74 µM
75 | Cc1ccc(N2CCN(c3ccc(NCc4nc5ccccc5n4C)cc3)CC2)cc1 | inactive
76 | N=c1n(CC(=O)c2ccc([N+](=O)[O-])cc2)c2ccccc2n1Cc1ccc(Cl)cc1 | 7.87 µM
77 | N#CCC(=O)N/N=C/c1cn(Cc2cccc3ccccc23)c2ccccc12 | > 80 µM (inactive)
78 | Cn1c(=O)c2c(SCC(=O)Nc3ccccc3F)nc(-c3ccccc3F)nc2n(C)c1=O | inactive
79 | O=C(NCCc1ccc(O)c(O)c1)C1COc2ccccc2O1 (stereo not given) | 16.8 µM
80 | O=C(Nc1ccc(SC(F)F)cc1)c1cc(-c2ccncc2)nc2ccccc12 | > 80 µM (inactive)
81 | CC(NCC(O)COCCC12CC3CC(CC(C3)C1)C2)c1ccccc1 (stereo not given) | > 80 µM (inactive)
82 | CCC(C)(C)C1CCC2(CC1)NC(=O)N(CC(=O)N1CCN(S(=O)(=O)c3cc(C)ccc3C)CC1)C2=O (stereo not given) | 19.3 µM
83 | CCCCCCCCCn1c2c(c(=N)c3c1CCC3)CCCC2 | 9 µM
84 | CCOC(=O)/C(=C\c1ccccc1)C(=O)c1cc(C(C)=O)c(Nc2ccccc2)s1 | 3.71 µM
85 | COc1ccc(-c2nn(-c3ccccc3)cc2/C=N/N2C(=O)CSC2=S)cc1 | > 80 µM (inactive)
86 | CCc1cc2c(C)ccc(C)c2nc1SCC(=O)Nc1c[nH]c(=O)[nH]c1=O | 16.8 µM
87 | O=C1NC(=O)N(Cc2ccc(F)cc2)C(=O)/C1=C/c1cccs1 | 13.8 µM
88 | CN(C)S(=O)(=O)c1ccc(N2CCCC2)c(C(=O)Nc2nc3ccccc3s2)c1 | 12.7 µM
89 | Cc1ccc(C(=O)N2N=C(c3ccc(Br)cc3)CC2c2ccccc2O)cc1 (stereo not given) | 14.3 µM
90 | CCCNC(=O)c1ccc2c(=O)c(O)c(-c3ccc(OC)cc3)[nH]c2c1 | > 80 µM (inactive)
91 | Cc1ccc(NC(=O)c2cc(S(=O)(=O)N(C)C)ccc2N2CCCC2)cc1S(=O)(=O)N(C)C | 19 µM
92 | CCN(CC)S(=O)(=O)c1ccc(N/N=C(\C)c2ccc3c(c2)OCO3)c([N+](=O)[O-])c1 | inactive
93 | N#Cc1cnn2c1nc(N1CCCCC1)c1ccccc12 | > 80 µM (inactive)
94 | COc1ccc(OCc2n(CC(=O)OC3CC(C)CCC3C(C)C)c3ccccc3[n+]2C)cc1 (stereo not given) | > 80 µM (inactive)
95 | CCCCCCCCCCn1c2c(c(=N)c3c1CCC3)CCC2 | 13.5 µM
